# pIC50: −log10 of the molar value. Where “and” joins values, the source holds several entries; their conditions need not be identical. Equal entries are not always repeated.
# Tests used:
# [1] = system: Plasmodium falciparum
# Description: (§1) Antimalarial activity against Plasmodium falciparum TM91C235
# [2] = system: Plasmodium falciparum; remark: listed apart in the source
# Description: (§2) Antimalarial activity against Plasmodium falciparum W2
# [3] = system: Plasmodium falciparum; remark: listed apart in the source
# Description: (§3) Antimalarial activity against Plasmodium falciparum D6
# [4] = system: Mus musculus; test: Effect on survival of CD1 mice (Mus musculus) infected with Plasmodium berghei KBG173 at 50 mg/kg/day, perorally; assay type: functional; conditions: route oral
# [5] = system: Mus musculus; test: Effect on survival of CD1 mice (Mus musculus) infected with Plasmodium berghei KBG173 at 600 mg/kg/day, perorally; assay type: functional, organism-based; design: route oral; conditions: route oral
# [6] = system: Mus musculus; test: Effect on survival of CD1 mice (Mus musculus) infected with Plasmodium berghei KBG173 at 200 mg/kg/day, perorally; assay type: functional; conditions: route oral
# [7] = system: SR; test: Antiproliferative activity against human SR cell line after 48 hrs; assay type: functional
# [8] = system: IGROV-1; test: Antiproliferative activity against human IGROV1 cell line after 48 hrs; assay type: functional; conditions: for CC50: read-out: LC50 (the source's name)
# [9] = system: SNB-75; test: Antiproliferative activity against human SNB75 cell line after 48 hrs; assay type: functional; conditions: SNB-75, 48 h
# [10] = system: EKVX; test: Antiproliferative activity against human EKVX cell line after 48 hrs; assay type: functional
# [11] = system: ACHN; test: Antiproliferative activity against human ACHN cell line after 48 hrs; assay type: functional
# [12] = system: COLO 205; test: Antiproliferative activity against human COLO 205 cell line after 48 hrs; assay type: functional; conditions: for CC50: read-out: LC50 (the source's name)
# [13] = system: PC-3; test: Antiproliferative activity against human PC3 cell line after 48 hrs; assay type: functional; conditions: PC-3, 48 h
# [14] = system: UO-31; test: Antiproliferative activity against human UO31 cell line after 48 hrs; assay type: functional; conditions: for CC50: read-out: LC50 (the source's name)
# [15] = system: SK-MEL-2; test: Antiproliferative activity against human SK-MEL2 cell line after 48 hrs; assay type: functional; conditions: SK-MEL-2, 48 h
# [16] = system: UACC-62; test: Antiproliferative activity against human UACC62 cell line after 48 hrs; assay type: functional; conditions: UACC-62, 48 h
# [17] = system: HOP-62; test: Antiproliferative activity against human HOP62 cell line after 48 hrs; assay type: functional; conditions: for CC50: read-out: LC50 (the source's name)
# [18] = system: HCT-15; test: Antiproliferative activity against human HCT15 cell line after 48 hrs; assay type: functional; conditions: HCT-15, 48 h
# [19] = system: DU-145; test: Antiproliferative activity against human DU145 cell line after 48 hrs; assay type: functional; conditions: DU-145, 48 h
# [20] = system: Plasmodium falciparum; test: microbe, parasite or virus in culture; conditions: D6
# Description: as §3
# [21] = system: Plasmodium falciparum; test: microbe, parasite or virus in culture; conditions: TM91C235
# Description: as §1
# [22] = system: Plasmodium falciparum; test: microbe, parasite or virus in culture; conditions: W2
# Description: as §2
# [23] = system: U-251; test: Antiproliferative activity against human U251 cell line after 48 hrs; assay type: functional; conditions: U-251, 48 h
# [24] = read-out: LC50 (the source's name)
smiles,measurement,setting,value
CC(=O)O[C@H]1C[C@H]2[C@@H]([C@H](OC(C)=O)C[C@@H]3CC4(CC[C@@]32C)OOC2(CCC(C(N)=O)CC2)OO4)[C@@H]2CC[C@H]([C@H](C)CCC(N)=O)[C@@]12C (stereo in doubt; 8),pIC50,[1],6.78
same,IC90,[1],0.249 µM
same,pIC50,[2],6.92
same,IC90,[2],0.265 µM
same,pIC50,[3],6.92
same,IC90,[3],0.196 µM
CC(=O)O[C@H]1C[C@H]2[C@@H]([C@H](OC(C)=O)C[C@@H]3CC4(CC[C@@]32C)OOC2(CCC(C)CC2)OO4)[C@@H]2CC[C@H]([C@H](C)CCC(=O)O)[C@@]12C (stereo in doubt; 16),Activity,[4],12.2 days
same,Activity,[5],29 days
same,Activity,[6],24.8 days
same,GI50,[7],1.63 µM
same,TGI,[7],3.82 µM
same,CC50,[7]; [24],8.92 µM
same,pIC50,[2],9.01
same,pIC50,[3],8.82
CCCOC(=O)CC[C@@H](C)[C@H]1CC[C@H]2[C@@H]3[C@H](OC(C)=O)C[C@@H]4CC5(CC[C@]4(C)[C@H]3C[C@H](OC(C)=O)[C@]12C)OOC1(CCC(C(=O)OCCC)CC1)OO5 (stereo in doubt; 5b),pIC50,[1],7.37
same,IC90,[1],0.0758 µM
same,pIC50,[2],7.38
same,IC90,[2],0.0835 µM
same,pIC50,[3],7.52
same,IC90,[3],0.0474 µM
CC(=O)O[C@H]1C[C@H]2[C@@H]([C@H](OC(C)=O)C[C@@H]3CC4(CC[C@@]32C)OOC2(CCC(C)CC2)OO4)[C@@H]2CC[C@H]([C@H](C)CCC(N)=O)[C@@]12C (stereo in doubt; 17),GI50,[8],0.49 µM
same,TGI,"[8]; Homo sapiens, IGROV-1, 48 h",1.84 µM
same,CC50,"[8]; Homo sapiens, IGROV-1, 48 h",4.95 µM
same,Activity,[4],21.2 days
same,Activity,[5],30 days
same,Activity,[6],21.8 days
same,GI50,[9],1.98 µM
same,TGI,[9],4.05 µM
same,CC50,[9]; [24],8.28 µM
same,GI50,"[10]; Homo sapiens, EKVX, 48 h",1.43 µM
same,LC50,"[10]; Homo sapiens, EKVX, 48 h",5.41 µM
same,TGI,"[10]; Homo sapiens, EKVX, 48 h",2.78 µM
same,pIC50,[2],7.85
same,LC50,[11],5.73 µM
same,GI50,"[11]; Homo sapiens, ACHN, 48 h",1.5 µM
same,TGI,"[11]; Homo sapiens, ACHN, 48 h",2.93 µM
same,GI50,"[12]; Homo sapiens, COLO 205, 48 h",1.69 µM
same,TGI,"[12]; Homo sapiens, COLO 205, 48 h",3.12 µM
same,CC50,"[12]; Homo sapiens, COLO 205, 48 h",5.76 µM
same,GI50,[13],1.97 µM
same,TGI,[13],4.29 µM
same,CC50,[13]; [24],9.31 µM
same,GI50,"[14]; Homo sapiens, UO-31, 48 h",1.26 µM
same,TGI,"[14]; Homo sapiens, UO-31, 48 h",2.64 µM
same,CC50,"[14]; Homo sapiens, UO-31, 48 h",5.5 µM
same,GI50,[15],1.71 µM
same,TGI,[15],3.2 µM
same,CC50,[15]; [24],6.01 µM
same,pIC50,[3],7.70
same,GI50,[16],1.85 µM
same,TGI,[16],3.99 µM
same,CC50,[16]; [24],8.59 µM
same,GI50,"[17]; Homo sapiens, HOP-62, 48 h",1.07 µM
same,TGI,"[17]; Homo sapiens, HOP-62, 48 h",2.31 µM
same,CC50,"[17]; Homo sapiens, HOP-62, 48 h",4.98 µM
same,GI50,[18],1.71 µM
same,TGI,[18],3.43 µM
same,CC50,[18]; [24],6.86 µM
same,GI50,[19],1.82 µM
same,TGI,[19],3.26 µM
same,CC50,[19]; [24],5.85 µM
CC(=O)O[C@H]1C[C@H]2[C@@H]([C@H](OC(C)=O)C[C@@H]3CC4(CC[C@@]32C)OOC2(CCC(C(=O)Nc3ccccc3)CC2)OO4)[C@@H]2CC[C@H]([C@H](C)CCC(=O)Nc3ccccc3)[C@@]12C (stereo in doubt; 14),pIC50,[1],7.37
same,IC90,[1],0.0866 µM
same,pIC50,[2],7.28
same,IC90,[2],0.0742 µM
same,pIC50,[3],7.53
same,IC90,[3],0.0445 µM
O[C@@H](c1cc(C(F)(F)F)nc2c(C(F)(F)F)cccc12)[C@H]1CCCCN1 [MEFLOQUINE],pIC50,[20],7.98
same,IC90,[20],0.0217 µM
same,pIC50,[21],7.79
same,IC90,[21],0.0657 µM
same,pIC50,[22],8.51
same,IC90,[22],0.0084 µM
CC(=O)O[C@H]1C[C@H]2[C@@H]([C@H](OC(C)=O)C[C@@H]3CC4(CC[C@@]32C)OOC2(CCC(C)CC2)OO4)[C@@H]2CC[C@H]([C@H](C)CCC(N)=O)[C@@]12C (stereo in doubt; 15),GI50,[8],1.54 µM
same,TGI,[8],3.07 µM
same,CC50,[8],6.14 µM
same,Activity,[4],21.4 days
same,Activity,[5],29.2 days
same,Activity,[6],27.2 days
same,GI50,[10],1.01 µM
same,LC50,[10],5.49 µM
same,TGI,[10],2.35 µM
same,LC50,[11],1.8 µM and 8.35 µM
same,TGI,[11],3.88 µM
same,TGI,[12],3.19 µM
same,CC50,[12],6.52 µM
same,TGI,[14],3.08 µM
same,CC50,[14],6.11 µM
same,GI50,[17],1.47 µM
same,TGI,[17],2.96 µM
same,CC50,[17],5.96 µM
same,GI50,[23],1.78 µM
same,TGI,[23],3.78 µM
same,CC50,[23]; [24],8.06 µM

# — ChEMBL document CHEMBL1138055, “Tetraoxane antimalarials and their reaction with Fe(II)” (J Med Chem, 2006)
